Results from paper PMC12621183 (Journal of Medicinal Chemistry, 2025).
“Also recorded” adds a separate entry of the source. Read-outs that look alike come from different tables or passages of the source.

Experiments:
recombinant ABL1 kinase = recombinant ABL1 kinase (Homo sapiens, UniProt P00519); assay: ABL1 kinase assay (ADP-Glo); type: biochemical
Procedure: Kinase inhibition was assessed using luminescent ADP-Glo–based assays. […] No-enzyme and no-compound reactions served as 0% and 100% activity controls, respectively. Luminescence was quantified using a Tecan Spark plate reader, and kinase activity or inhibition was calculated relative to controls.

K562 wild-type cells [1] = assay: cells; type: cell-based; details: for apoptosis induction: K562 cells, 72-h exposure; for CC50: K562 wild-type, 72 h, Annexin V/7-AAD, read-out: LC50 (the source's name)
Procedure: (§1) K562 wild-type, K562/DOX, OCI-AML3, HaCaT and healthy B cell cytotoxicity screening. Healthy B-lymphocytes were obtained from healthy donor blood samples using density gradient centrifugation with Histopaque.
(§2) All cells were maintained at 37 °C in atmospheric conditions of 5% CO2. Cytotoxicity screening was carried out in triplicate with these cells at a cell density of 0.5 × 10^6 cells/mL. Cells were treated with test compounds at a range of concentrations to establish LC50 values. Cells were incubated with the compounds for 72 h before being harvested by centrifugation. Subsequently, cells were labeled with Annexin V and 7-AAD (bioscience) in accordance with the manufacturer’s instructions. Following staining with FITC-labeled annexin V and 7-AAD, samples were analyzed using CytExpert software on a CytoFLEX LX flow cytometer (Beckman Coulter) to determine relative levels of cell death in the sample. Prism 10 software was then used to analyze the data to obtain dose–response curves.

K562/DOX cells [2] = assay: cells; type: cell-based
Procedure: as §1, §2

PDGFRα (D842Y) = molecular target: T1, PDGFRα (D842Y) (Homo sapiens, UniProt P16234, D842Y); assay: PDGFRα (D842Y) Chemi-Verse kinase assay; type: biochemical; details: compared with imatinib
T1 construct: purchased Cambridge Biosciences (Chemi-Verse kinase assays)
T1 sequence (P16234 24-1089 D842Y): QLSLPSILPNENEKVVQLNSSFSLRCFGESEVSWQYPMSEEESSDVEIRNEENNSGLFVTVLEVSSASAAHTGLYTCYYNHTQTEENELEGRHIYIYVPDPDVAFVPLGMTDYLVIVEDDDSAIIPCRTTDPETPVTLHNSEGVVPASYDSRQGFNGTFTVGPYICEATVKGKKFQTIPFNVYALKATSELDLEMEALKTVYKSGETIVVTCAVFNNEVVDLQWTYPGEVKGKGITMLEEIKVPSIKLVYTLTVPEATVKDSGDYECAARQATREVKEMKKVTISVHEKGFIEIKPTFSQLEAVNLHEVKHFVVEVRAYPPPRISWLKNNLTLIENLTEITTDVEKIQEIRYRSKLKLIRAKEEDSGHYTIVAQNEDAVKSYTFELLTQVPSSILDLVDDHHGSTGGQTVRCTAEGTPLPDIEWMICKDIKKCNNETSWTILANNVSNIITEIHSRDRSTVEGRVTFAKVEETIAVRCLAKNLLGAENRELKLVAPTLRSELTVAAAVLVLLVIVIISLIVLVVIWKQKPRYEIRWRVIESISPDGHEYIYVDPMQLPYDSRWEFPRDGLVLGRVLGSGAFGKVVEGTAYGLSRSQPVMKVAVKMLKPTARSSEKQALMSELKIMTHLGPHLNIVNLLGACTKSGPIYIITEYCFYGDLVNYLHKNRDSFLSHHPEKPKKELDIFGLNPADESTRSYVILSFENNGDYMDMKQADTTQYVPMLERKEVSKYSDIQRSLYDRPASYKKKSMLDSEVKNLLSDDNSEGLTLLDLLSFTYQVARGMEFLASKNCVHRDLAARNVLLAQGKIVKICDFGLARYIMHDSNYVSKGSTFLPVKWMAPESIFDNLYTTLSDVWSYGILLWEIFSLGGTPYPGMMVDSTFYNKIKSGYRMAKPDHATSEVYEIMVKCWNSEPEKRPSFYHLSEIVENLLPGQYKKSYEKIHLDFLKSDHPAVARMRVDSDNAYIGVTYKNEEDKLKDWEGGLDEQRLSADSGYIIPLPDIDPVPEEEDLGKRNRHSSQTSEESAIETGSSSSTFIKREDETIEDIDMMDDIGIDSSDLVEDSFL
Procedure: (§3) Reactions were set up under the supplier’s recommended conditions, with recombinant kinases (5 ng/μL final), peptide substrates, and ATP in kinase assay buffer. Test inhibitors or vehicle were added, and reactions were incubated at 30 °C for 45 min. ADP formation was quantified with ADP-Glo detection, and percent inhibition was determined relative to DMSO controls.

[3] = LC-MS/MS accumulation assay in P-gp-overexpressing K562/DOX cells; type: in vitro ADME, human; details: human; K562 wild-type vs K562/DOX
Procedure: (§4) K562 wild-type and K562/DOX cells were seeded in 6-well plates at a density of 1 × 10^6 cells per well in a final volume of 2 mL and cultured for 24 h at 37 °C in a humidified incubator with 5% CO2. The cells were then treated with 50 μM of the drug and incubated for 2 h. After incubation, the cells were harvested, washed with ice-cold phosphate-buffered saline (PBS), and pelleted. Intracellular drug was extracted by lysing the cells with 400 μL of methanol, aided by sonication. The lysates were centrifuged at 7200 rcf, and the supernatant was collected for analysis by LC-MS/MS. Drug quantification was performed using an external calibration method. Stock solutions of each compound were prepared in methanol and used to generate calibration standards in methanol/DMSO (70:30, %v/v). Experimental samples were diluted in the same solvent mixture prior to analysis.
(§5) Chromatographic separation was performed on a Shimadzu Nexera XR ultrahigh-performance liquid chromatography (UHPLC) system comprising two LC-20AD pumps, a DGC degasser, a SIL-30AC autosampler, a CBM-20A controller, and a column oven. The system was fitted with an Ascentis Express C18 column (5 cm × 2.1 mm, 2.7 μm particle size). Elution was performed with a binary solvent system: eluent A, 0.1% formic acid in water; eluent B, 0.1% formic acid in methanol. The gradient program was as follows: 5% B for 0.5 min, increased to 40% B over 3.5 min, increased to 95% B over 2 min, held at 95% B for 1.5 min, then returned to 5% B at 8 min and held for 3 min for re-equilibration. The mobile phase flow rate was 0.21 mL/min. The column oven was maintained at 40 °C and the autosampler at 10 °C.
(§6) The UHPLC system was coupled to a Shimadzu 8060 triple quadrupole mass spectrometer with an electrospray ionization (ESI) source operating in positive ion mode. […] Multiple reaction monitoring (MRM) transitions (Table S2) were used for quantification with a dwell time of 100 ms per transition. Data were normalized against standards prepared using the initial drug concentration in the lysis solution. Statistical significance of differences in intracellular accumulation between drugs and cell lines was assessed using the nonparametric Mann–Whitney test (n = 6).

K562/DOX cells [4] = assay: as above; type: in vitro ADME, human; details: for increase in intracellular concentration: K562/DOX relative to K562 wild-type; for intracellular accumulation (concentration): K562/DOX, 50 μM drug, 2 h; for higher intracellular concentration relative to imatinib: within K562/DOX cells
Procedure: as §4, §5, §6

HaCaT cells = type: cell-based; details: ratio of IC50 in HaCaT cells to LC50 in K562 wild-type
Procedure: HaCaT cells were seeded in a 96-well plate in DMEM at a density of 3 × 10^3 cells/well and incubated for 24 h at 37 °C in a humidified incubator with 5% CO2. The cells were then treated with a series of drug concentrations (0.1–100 μM) and incubated for a further 72 h at 37 °C. After treatment, the media in each well, including control wells, was replaced with MTT reagent (0.1 mg/well in media) and incubated for 4 h at 37 °C. Following incubation, the MTT reagent was carefully removed, and 200 μL of DMSO was added to each well to solubilize the formazan crystals. The plate was shaken for 10 min, and the optical density (OD) was measured at 570 nm using a microplate reader.

healthy B-lymphocytes = assay: Cytotoxicity in healthy B-lymphocytes (Annexin V/7-AAD); type: cell-based; details: concentrations up to 100 μM
Procedure: K562 wild-type, K562/DOX, OCI-AML3, HaCaT and healthy B cell cytotoxicity screening. Healthy B-lymphocytes were obtained from healthy donor blood samples using density gradient centrifugation with Histopaque. Informed consent was obtained from all human participants in this study and experiments were performed in accordance with ethical approval granted by the local research ethics committee (17/SW/0263). […]
All cells were maintained at 37 °C in atmospheric conditions of 5% CO2. […] Following staining with FITC-labeled annexin V and 7-AAD, samples were analyzed using CytExpert software on a CytoFLEX LX flow cytometer (Beckman Coulter) to determine relative levels of cell death in the sample. […]

CSF-1R = molecular target: T2, CSF-1R (Homo sapiens, UniProt P07333); assay: CSF-1R Chemi-Verse kinase assay; type: biochemical; details: compared with imatinib
T2 construct: purchased Cambridge Biosciences (Chemi-Verse kinase assays)
T2 sequence (P07333 20-972): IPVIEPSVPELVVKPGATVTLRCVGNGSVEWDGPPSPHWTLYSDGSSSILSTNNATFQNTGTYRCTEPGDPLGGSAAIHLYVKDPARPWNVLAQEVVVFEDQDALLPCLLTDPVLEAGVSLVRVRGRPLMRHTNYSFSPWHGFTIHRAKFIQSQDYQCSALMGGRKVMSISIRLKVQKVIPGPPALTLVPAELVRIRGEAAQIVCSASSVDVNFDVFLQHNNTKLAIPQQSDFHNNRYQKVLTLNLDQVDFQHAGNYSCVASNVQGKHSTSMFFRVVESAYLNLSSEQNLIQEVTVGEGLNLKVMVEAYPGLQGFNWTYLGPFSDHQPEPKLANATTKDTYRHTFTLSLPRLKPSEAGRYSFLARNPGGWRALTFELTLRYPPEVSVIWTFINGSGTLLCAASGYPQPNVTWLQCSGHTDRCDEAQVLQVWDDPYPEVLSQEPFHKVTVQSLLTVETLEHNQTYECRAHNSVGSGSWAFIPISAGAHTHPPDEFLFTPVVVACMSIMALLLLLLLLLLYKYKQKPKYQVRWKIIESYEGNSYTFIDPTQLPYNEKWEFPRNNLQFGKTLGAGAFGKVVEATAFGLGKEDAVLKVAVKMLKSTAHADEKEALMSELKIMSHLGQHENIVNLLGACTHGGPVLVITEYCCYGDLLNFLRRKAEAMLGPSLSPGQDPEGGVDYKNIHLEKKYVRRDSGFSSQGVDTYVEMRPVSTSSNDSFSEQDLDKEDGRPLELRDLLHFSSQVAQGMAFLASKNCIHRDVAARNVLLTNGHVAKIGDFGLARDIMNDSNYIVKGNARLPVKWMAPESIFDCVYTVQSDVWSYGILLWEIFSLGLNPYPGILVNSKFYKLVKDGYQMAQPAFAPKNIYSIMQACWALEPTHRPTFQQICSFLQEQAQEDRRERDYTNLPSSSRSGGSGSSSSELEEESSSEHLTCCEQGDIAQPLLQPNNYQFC
Procedure: as §3

K562/DOX cells [5] = assay: Effect of P-gp activity on apoptosis using verapamil (K562/DOX); type: cell-based, human; details: for Fold change in LC50 (+/- verapamil): efflux factor; for effect of P-gp inhibition by verapamil on cytotoxicity: with and without verapamil
Procedure: Cells were seeded onto 96-well plates at a concentration of 0.5 × 10^6 cells/well in a final volume of 200 μL. […] After a 72-h incubation period with the test compounds, both with and without the inhibitor, apoptotic cells were evaluated using the Annexin V assay to determine the extent of apoptosis.

K562 wild-type cells [6] = assay: LC-MS/MS accumulation assay in K562 wild-type cells; type: in vitro ADME, human; details: 50 μM drug, 2 h
Procedure: as §4, with “analysis. […]” for “analysis.”
The UHPLC system was coupled to a Shimadzu 8060 triple quadrupole mass spectrometer with an electrospray ionization (ESI) source operating in positive ion mode. […] Multiple reaction monitoring (MRM) transitions (Table S2) were used for quantification with a dwell time of 100 ms per transition. […] Statistical significance of differences in intracellular accumulation between drugs and cell lines was assessed using the nonparametric Mann–Whitney test (n = 6).

[7] = Homo sapiens, K562, 72 h, read-out: LC50, K562/DOX, 72 h, Annexin V/7-AAD

Chain of recombinant ABL1 kinase (P00519 whole entry): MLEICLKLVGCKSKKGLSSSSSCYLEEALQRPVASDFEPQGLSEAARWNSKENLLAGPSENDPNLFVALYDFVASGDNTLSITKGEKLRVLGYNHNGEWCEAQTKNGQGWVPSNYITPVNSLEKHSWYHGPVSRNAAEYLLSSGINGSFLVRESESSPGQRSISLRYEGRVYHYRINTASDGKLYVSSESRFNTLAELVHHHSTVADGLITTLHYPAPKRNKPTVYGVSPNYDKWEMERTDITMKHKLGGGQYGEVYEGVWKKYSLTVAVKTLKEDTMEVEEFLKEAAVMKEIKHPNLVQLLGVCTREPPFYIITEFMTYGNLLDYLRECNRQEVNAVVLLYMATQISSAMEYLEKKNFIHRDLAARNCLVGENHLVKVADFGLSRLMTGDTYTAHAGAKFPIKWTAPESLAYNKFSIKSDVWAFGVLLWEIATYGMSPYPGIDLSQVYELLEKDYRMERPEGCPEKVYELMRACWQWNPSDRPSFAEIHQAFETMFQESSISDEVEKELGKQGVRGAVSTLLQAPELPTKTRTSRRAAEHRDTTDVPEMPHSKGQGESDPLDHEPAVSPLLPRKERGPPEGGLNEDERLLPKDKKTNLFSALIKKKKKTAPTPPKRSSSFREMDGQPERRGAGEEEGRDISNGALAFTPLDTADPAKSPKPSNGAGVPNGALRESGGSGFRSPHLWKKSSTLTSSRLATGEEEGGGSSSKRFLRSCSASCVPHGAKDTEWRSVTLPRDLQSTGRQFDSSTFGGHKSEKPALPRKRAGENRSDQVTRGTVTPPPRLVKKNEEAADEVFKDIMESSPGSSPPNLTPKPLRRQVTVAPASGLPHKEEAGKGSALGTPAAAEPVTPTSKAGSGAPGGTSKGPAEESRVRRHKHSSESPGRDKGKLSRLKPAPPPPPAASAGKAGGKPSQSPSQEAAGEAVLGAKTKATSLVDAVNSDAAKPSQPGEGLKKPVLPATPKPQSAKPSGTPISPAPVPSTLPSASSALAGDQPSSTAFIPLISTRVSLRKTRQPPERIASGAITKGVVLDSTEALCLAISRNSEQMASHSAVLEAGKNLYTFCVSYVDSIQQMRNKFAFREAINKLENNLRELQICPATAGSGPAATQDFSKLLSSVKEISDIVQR

Row | Molecule | %Kinase inhibition (recombinant ABL1 kinase; 10 μM, 40 min incubation) [%] | apoptosis induction (K562 wild-type cells [1]) | CC50 (K562 wild-type cells [1]) [µM] | CC50 (K562/DOX cells [2]; K562/DOX, 72 h, Annexin V/7-AAD, read-out: LC50 (the source's name)) [µM] | inhibition at 10 µM (recombinant ABL1 kinase; 10 μM, 40 min incubation) [%] | CC50 (K562 wild-type cells [1]; Homo sapiens, K562, 72 h) [µM] | CC50 (K562/DOX cells [2]; [7]) [µM] | inhibitory activity against PDGFRα (D842Y) (PDGFRα (D842Y)) | efflux ratio at 2 h, 50 μM [3] | increase in intracellular concentration (K562/DOX cells [4]) [%] | intracellular accumulation (concentration) (K562/DOX cells [4]) [µg/mL] | higher intracellular concentration relative to imatinib (K562/DOX cells [4]) | Toxicity Index (IC50 HaCaT/LC50 K562) (HaCaT cells) | ABL1 inhibition (recombinant ABL1 kinase) | toxicity in nonmalignant B-lymphocytes (healthy B-lymphocytes) | inhibitory activity against CSF-1R (CSF-1R) | Fold change in LC50 (+/- verapamil) (K562/DOX cells [5]) | effect of P-gp inhibition by verapamil on cytotoxicity (K562/DOX cells [5]) | intracellular accumulation (concentration) (K562 wild-type cells [6]) [µg/mL] | CC50 (K562/DOX cells [2]; human, 72 h) [µM]
1 | 4-Methyl-3-((4-(pyridin-3-yl)pyrimidin-2-yl)amino)phenyl-4-((4-(pyrimidin-2-yl)piperidin-1-yl)methyl)benzamide [Compound 11] | 26.55 | induced apoptosis in a dose-dependent manner | 24.2 ± 12.2 | > 50 |  |  |  |  |  |  |  |  |  |  |  |  |  |  |  | 
2 | Cc1ccc(NC(=O)c2ccc(CN3CCC(c4ccccc4)CC3)cc2)cc1Nc1nccc(-c2cccnc2)n1 [Compound 7] |  | inactive |  |  | 37.7 | > 50 | > 50 |  |  |  |  |  |  |  |  |  |  |  |  | 
3 | Cc1ccc(NC(=O)c2ccc(CN3CCC(c4ccc(N)cc4)CC3)cc2)cc1Nc1nccc(-c2cccnc2)n1 [Compound 8, 4-((4-(4-Aminophenyl)piperidin-1-yl)methyl)-N-(4-methyl-3-((4-(23yridine-3-yl)pyrimidin-2-yl)amino)phenyl)benzamide] |  | induced apoptosis in a dose-dependent manner |  |  | 40 | 2.29 | 5.29 | broadly comparable to imatinib | 0.98 | 2.5 | 14.49 | approximately 2.6 fold | 3.4 | moderate inhibition | No significant toxicity; also recorded: no significant cytotoxicity | broadly comparable to imatinib | 1.3 | minimal changes; also recorded: reversal of resistance was not significant | 14.14 | 
4 | Cc1ccc(NC(=O)c2ccc(CN3CCC(c4ccccn4)CC3)cc2)cc1Nc1nccc(-c2cccnc2)n1 [Compound 9] |  | induced apoptosis in a dose-dependent manner | 21.8 |  | 32.2 | 21.8 ± 11 | 20.3 ± 10.3 | broadly comparable to imatinib | 0.87 | 14.4 | 26.73 | ~4.8 fold |  | relatively weak inhibition |  | broadly comparable to imatinib | 4.1 | reversal of resistance was not significant | 23.36 | 20.3
5 | Cc1ccc(NC(=O)c2ccc(CN3CCC(c4ccncc4)CC3)cc2)cc1Nc1nccc(-c2cccnc2)n1 [Compound 10, 4-Methyl-3-((4-(pyridin-3-yl)pyrimidin-2-yl)amino)phenyl-4-((4-(pyridin-4-yl)piperidin-1-yl)methyl)benzamide] |  | inactive |  |  | 39.6 | > 50 | 37.5 ± 10.1 |  |  |  |  |  |  |  |  |  |  |  |  | 37.5
6 | Cc1ccc(NC(=O)c2ccc(CN3CCC(n4cccc4)CC3)cc2)cc1Nc1nccc(-c2cccnc2)n1 [Compound 12, 4-((4-(1H-Pyrrol-1-yl)piperidin-1-yl)methyl)-N-(4-methyl-3-((4-(pyridin-3-yl)pyrimidin-2-yl)amino)phenyl)benzamide] |  | inactive |  |  | 47.4 | > 50 |  |  |  |  |  |  |  |  |  |  |  |  |  | 
7 | Cc1ccc(NC(=O)c2ccc(CN3CCC(n4ccnc4)CC3)cc2)cc1Nc1nccc(-c2cccnc2)n1 [Compound 13, 4-((4-(1H-Imidazol-1-yl)piperidin-1-yl)methyl)-N-(4-methyl-3-((4-(pyridin-3-yl)pyrimidin-2-yl)amino)phenyl)benzamide] |  | induced apoptosis in a dose-dependent manner |  |  | 47.1 | 18.2 ± 1.9 | 32.5 ± 14.5 |  |  |  |  |  |  |  |  |  | 1.9 | minimal changes; also recorded: reversal of resistance was not significant |  | 
8 | Cc1ccc(NC(=O)c2ccc(CN3CCC(n4cnnc4)CC3)cc2)cc1Nc1nccc(-c2cccnc2)n1 [Compound 14, 4-((4-(4H-1,2,4-Triazol-4-yl)piperidin-1-yl)methyl)-N-(4-methyl-3-((4-(pyridin-3-yl)pyrimidin-2-yl)amino)phenyl)benzamide] |  | inactive |  |  | 36.1 | > 50 | > 50 |  |  |  |  |  |  |  |  |  |  |  |  | 
